Data published in article PMC6389928, “Biomolecular Interaction, Anti-Cancer and Anti-Angiogenic Properties of Cobalt(III) Schiff Base Complexes” (Scientific Reports, 2019).

How the values were obtained:
EB - DNA = assay: Competitive binding with ethidium bromide: fluorescence quenching of EB - DNA; conditions: quenching of EB-DNA emission, F0/F vs [complex]/[DNA], λex 450 nm
Source text: The complexes 1 and 2 are non-emissive in nature. […] In this study, changes in the intensity of the fluorescence emission band of EB - DNA complex were monitored after the addition of metal complexes 1 and 2 (Fig. 2). Upon increasing complex concentration in the DNA-EB solution, EB emission intensity was decreased. […] The resulting data (Table 1) of the complexes 1 and 2 with EB-DNA was processed from the standard Stern-Volmer equation[38], F0/F=1+Ksvr where F0 and F are the fluorescence emission intensities in the absence and presence of quencher (i.e. complexes 1 and 2), r is the ratio of concentration of the quencher. Ksv is the Stern-Volmer quenching constant.
For fluorescence quenching experiments, nucleic acids solution was pretreated with ethidium bromide (EB) for 30 min. Solutions of cobalt(III) complexes were then added to this mixture and their effect on the emission intensity was measured. The samples were excited at 450 nm and emission was observed between 500 and 750 nm.

A549 cells = assay: Cell cycle analysis by flow cytometry; type: cell-based, Human; conditions: A549, IC50 concentrations, 24 h, propidium iodide, compared to control
Description: The possible cell cycle arrest was determined by flow cytometer which is used to distinguish and quantify the cells in different phases of the cell cycle. The cells were treated with the complexes 1 and 2 at the respective half maximal inhibitory concentrations. The cells were fixed, stained with propidium iodide and analysed for DNA/cell content as aspects of cell cycle distribution. The DNA histograms and the percentage of cells in each of the phases are given Fig. 5. […] The increase of cell accumulation in sub G0 - G1 phase indicated delay in progression of cell cycle. The cells thus inhibited in division end up in the apoptosis due to sub G0 − G1 check point arrest. […] In as much as apoptosis itself could be induced due to the DNA damage, necrosis is a clear indication of damage caused by the complexes to the cytosol.
Cell cycle analysis: Cell phase distribution was determined by flow cytometry with DNA staining to reveal the total amount of DNA[94]. […] After incubation, the cells were trypsinized, harvested, fixed in 1 mL 80% cold ethanol and incubated at 4 °C for 15 min. […] Cell cycle distribution was analyzed using FACS (fluorescent activated cell sorter) (Becton-Dickinson, Sanjose, CA, USA) with 15 mW, 488 nm argon ion laser. […] The data were acquired and analyzed using Dean-Jett-Fox algorithm.

| SMILES | Stern–Volmer constant (Ksv) (EB - DNA) | effect on cell cycle distribution (A549 cells) |
| --- | --- | --- |
| CCCCCCCCCCCC[NH2+][Co-3]123([NH2+]CCCCCCCCCCCC)[O]c4ccccc4C=[N+]1CC[N+]2=Cc1ccccc1[O]3.[O-][Cl+3]([O-])([O-])[O-] [Complex 1, trans-[Co(salen)(DA)2](ClO4)] | 0.5694 | gradual increase in sub G0 − G1 and G2 − M phases |
| CCCCCCCCCCCC[NH2+][Co-3]123([NH2+]CCCCCCCCCCCC)[O]c4ccccc4C=[N+]1c1ccccc1[N+]2=Cc1ccccc1[O]3.[O-][Cl+3]([O-])([O-])[O-] [Complex 2, trans-[Co(salophen)(DA)2](ClO4)] | 0.6067 | gradual increase in sub G0 − G1 and G2 − M phases |
